US5972914A, “Remedies for liver diseases” (Meiji Milk Products Co., Ltd., priority 1998, dated 1999)
Structures can show the parent of a compound that is named as a salt.

How the values were obtained:
mice = assay: Acute toxicity test; format: in vivo, mice (ICR); conditions: i.p.
Experimental: The pH was adjusted to 7.0 by use of 5 N NaOH. Solutions having lower concentrations were prepared by dilution with physiological saline. Each solution (10 μl) was intraperitoneally injected to mice (ICR, female, 6-weeks old, 29 g), and the survival ratio was obtained.

[1] = tested on: hydroxyproline, fibrosis of the liver; assay: Effect on hepatic cirrhosis (2): hydroxyproline in liver as index of fibrosis; format: in vivo, Sprague-Dawley rats
Experimental: (§1) Groups Sprague-Dawley male rats (7 weeks old; Nippon SLC) were purchased and kept for five days before being used in the test. Each group consisted of 10 rats, and four groups were used in the test.
(§2) An N-nitrosodiethylamine solution (5.32 ml; which corresponds to 5 g due to the specific gravity of 0.94) was measured into a measuring cylinder by use of a glass pipette, and physiological saline was added to make the total volume 100 ml. Subsequently, the solution was sonicated for 2 minutes to prepare a uniform N-nitrosodiethylamine solution (50 mg/ml). The solution was prepared just before use. N-nitrosodiethylamine was intraperitoneally administered to each rat at a dose of 100 mg/2 ml/kg once in the morning on days 0, 7, 14, 21, and 28 (day 0: the first day of administration of N-nitrosodiethylamine).
An ethanolamine hydrochloric acid salt was measured and dissolved in a certain amount of distilled water for injection use. […]
The frozen liver tissue (1 g) was weighed and homogenized in a Teflon homogenizer together with pure water (3 ml). […] As an index of fibrosis, the amount of hydroxyproline was used, and the hydroxyproline content per g of liver tissue was calculated for comparison.
(3) The amount of hydroxyproline, serving as an index of fibrosis of the liver, was determined by an amino acid analysis.

[2] = tested on: hepatic cirrhosis induced by N-nitrosodiethylamine, clear cell foci; assay: Effect on hepatic cirrhosis (2): formation of clear cell foci; conditions: N-nitrosodiethylamine 100 mg/kg i.p., days 0, 7, 14, 21, 28
[3] = tested on: hepatic cirrhosis induced by N-nitrosodiethylamine, nodules on liver surface; assay: Effect on hepatic cirrhosis (2): nodule formation on the liver surface; format: in vivo, Sprague-Dawley rats
Experimental: as §1, §2
An ethanolamine hydrochloric acid salt was measured and dissolved in a certain amount of distilled water for injection use. The solution was suitably diluted and administered to each rat by oral route by use of an oral probe for rats.
The liver was visually observed, and then a portion thereof was fixed with 10% neutral formalin buffer. Portions of fixed samples were frozen and stored at -80° C. in a tightly-sealed container.
The formation of nodules was evaluated by five rankings.

rat hepatocyte = assay: 3H-TdR uptake by rat hepatocytes in primary culture (hepatocyte growth promoting activity); conditions: in the presence of either the high molecular weight factor extract or EGF
Experimental: In separation and identification of the low molecular weight factor showing hepatocyte proliferation promoting activity derived from epithelial mucosa of the bovine small intestine, the rat hepatocyte system in primary culture was used. To this culture system, a fraction of a crude extract of bovine small intestine epithelial mucosa in the course of purification was added in the presence of high molecular weight factor extract (1%) and insulin (10 μg/ml) or in the presence of EGF (20 ng/ml) and insulin (10 μg/ml), to thereby establish an assay system for measuring the uptake of ^3 H-TdR into DNA of rat hepatocyte nuclei.
Fractions each amounting 15 ml was added to the above-mentioned assay system and the uptake of ^3 H-TdR was measured.

liver necrosis = assay: Histopathological profile of liver in mice with carbon tetrachloride liver disorder; format: in vivo, ddY mice; conditions: ethanolamine administration
Experimental: (§3) Carbon tetrachloride (5 ml, Wako Pure Chemicals) was put in a glass vial, and Panasate 800 (45 ml, Nippon Yushi Chemicals Co, Ltd.) was added to prepare a 10% (v/v) solution.
(§4) Subsequently, the total amount was made to 50 ml. An aliquot of 2 ml was diluted in 38 ml of physiological saline.
(§5) One group consisted of 10 mice. For 24 hours prior to the administration of tetrachloride, each mouse was fasted by being fed water only. 10% carbon tetrachloride/Panasate solution was intraperitoneally administered to each mice at a dose of 1 ml/kg.

serum transaminase GOT = assay: Serum GOT in mice with liver disorder induced by carbon tetrachloride; format: in vivo, ddY mice
Experimental: as §3, §4, §5
(§6) Blood was collected from the abdominal aorta by use of 1-ml disposable syringes (Terumo). The blood, dispensed into 1.5 ml Eppendorf tubes, was subjected to centrifugal separation at 5,000 rpm for 10 minutes to thereby obtain serum. The activity of transaminase (GOT, GPT) in the serum thus obtained was measured. The measurement was performed by use of a Cobas Mira System (Baxter).

serum transaminase GPT = assay: Serum GPT in mice with liver disorder induced by carbon tetrachloride; format: in vivo, ddY mice
Experimental: as §3, §4, §5, §6

[4] = tested on: hepatocytes, tubular epithelial cells, dermal keratinocytes and melanocytes, type II epithelial cells of pulmonary alveolus, epithelial cells of gastric mucosa; conditions: cited from earlier work
cancer cells = conditions: cited from earlier work
[5] = N-nitrosodiethylamine 100 mg/kg i.p., days 0, 7, 14, 21, 28

NCCO [EA-HCl, monoethanolamine-HCl]
Survival, 1 day after admin. (mice; 0.5 g/kg (calculated as EA)): 4/4 | Survival, 6 days after admin. (mice; 0.5 g/kg (calculated as EA)): 4/4 | Survival, administration (day) (mice; 0.5 g/kg (calculated as EA)): 4/4 | Survival, 1 day after admin. (mice; 1.25 g/kg (calculated as EA)): 3/3 | Survival, 6 days after admin. (mice; 1.25 g/kg (calculated as EA)): 3/3 | Survival, administration (day) (mice; 1.25 g/kg (calculated as EA)): 3/3 | Survival, administration (day) (mice; 2.5 g/kg (calculated as EA)): 0/4 | time to death (mice; 5.0 and 2.5 g/kg): ≤ 30 min | Survival, administration (day) (mice; 5.0 g/kg (calculated as EA)): 0/4 | survival at six days (mice; doses equal to or less than 1.25 g/kg): alive when six days had passed

CCN(CC)N=O [N-nitrosodiethylamine, reference compound]
hydroxyproline level [1, 5]: significantly elevated | formation of clear cell foci [2]: considerable formation of clear cell foci | nodules in the surface of the liver [3, 5]: presented clear nodules in the surface of the liver

NCCO [ethanolamine, monoethanolamine]
amount of hydroxyproline, dose dependence ([1]; oral, 15 and 50 mg/kg): the higher the dose of ethanolamine, the lower the amount of hydroxyproline | 3H-TdR uptake, growth-stimulating effect (rat hepatocyte): synergistic growth-stimulating effects | formation of nodules, difference vs N-nitrosodiethylamine group ([3]; 15 mg/kg and 50 mg/kg, Dunnett's test): statistically significant | prevention of hepatic cirrhosis induced by N-nitrosodiethylamine ([3]; oral administration): can be prevented by oral administration of ethanolamine | formation of nodules, dose dependence ([3]; oral, 15 and 50 mg/kg, visual observation): the higher the dose of ethanolamine, the less significant the formation of nodules | area of necrosis in histopathological profile of the liver (liver necrosis): a tendency that the area of necrosis was reduced | GOT level (serum transaminase GOT; intraperitoneal, 2.8 mg/kg): significantly decreased | GOT level (serum transaminase GOT; peroral, 16 mg/kg): significantly decreased | GPT level (serum transaminase GPT; intraperitoneal, 2.8 mg/kg): significantly decreased | GPT level (serum transaminase GPT; peroral, 16 mg/kg): significantly decreased

HGF: hepatocyte growth factor (HGF)
mitogenic activity [4]: potent mitogen | motogen function ([4]; motion of cells): function as a motogen to stimulate motion of cells | proliferation of cancer cells (cancer cells): action to suppress proliferation of cancer cells
